Results as given in ChEMBL document CHEMBL5154647, “Discovery of seneciobipyrrolidine derivatives for the amelioration of glucose homeostasis disorders through 4E-BP1/Akt/AMPK signaling activation” (Eur J Med Chem, 2022).
Values belong to the molecule of their own block, whether it stands above or below them. The source made the active and inactive calls. The rule behind the calls is not given here.

Tests used:
L6 [1] = test: Induction of glucose uptake in rat L6 myoblasts at 20 uM measured after 2 hrs by liquid scintillation counter; type: functional
[2] = Half life in Sprague-Dawley rat at 20 mg/kg, po measured upto 10 hrs by LC/MS/MS analysis; type: ADME, organism-based; settings: in vivo
[3] = Oral bioavailability in Sprague-Dawley rat at 20 mg/kg measured upto 10 hrs by LC/MS/MS analysis; type: ADME, organism-based; settings: in vivo
[4] = AUC (0 to t) in Sprague-Dawley rat at 5 mg/kg, iv measured upto 24 hrs by LC/MS/MS analysis; type: ADME, organism-based; parameters: dose 5 mg/kg, time < 24 hrs, route iv; settings: in vivo
[5] = Cmax in Sprague-Dawley rat at 5 mg/kg, iv measured upto 24 hrs by LC/MS/MS analysis; type: ADME, organism-based; parameters: dose 5 mg/kg, time < 24 hrs, route iv; settings: in vivo
[6] = Tmax in Sprague-Dawley rat at 20 mg/kg, po measured upto 10 hrs by LC/MS/MS analysis; type: ADME, organism-based; settings: in vivo
L6 [7] = test: Induction of glucose uptake in rat L6 myoblasts assessed as 2-DG concentration at 25 uM preincubated for 3 hrs and in presence of 2-deoxyglucose measured after 1 hrs by DNTB reagent based colorimetric assay; type: functional; settings: time 4 hrs
[8] = AUC (0 to t) in Sprague-Dawley rat at 20 mg/kg, po measured upto 10 hrs by LC/MS/MS analysis; type: ADME, organism-based; parameters: time < 10 hrs, dose 20 mg/kg, route po; settings: in vivo
[9] = Half life in Sprague-Dawley rat at 5 mg/kg, iv measured upto 24 hrs by LC/MS/MS analysis; type: ADME, organism-based; settings: in vivo
[10] = Cmax in Sprague-Dawley rat at 20 mg/kg, po measured upto 10 hrs by LC/MS/MS analysis; type: ADME, organism-based; parameters: time < 10 hrs, dose 20 mg/kg, route po; settings: in vivo
[11] = Microsomal stability in mouse liver microsomes assessed as half life preincubated with NADPH measured upto 60 mins by LC-MS analysis; type: ADME, Microsome
[12] = Microsomal stability in monkey liver microsomes assessed as half life preincubated with NADPH measured upto 60 mins by LC-MS analysis; type: ADME, Macaca mulatta, Microsome; settings: rhesus monkey
L6 [13] = test: Induction of glucose uptake in rat L6 myoblasts preincubated for 3 hrs with compound and in presence of 2-deoxyglucose measured after 1 hrs by DNTB reagent based colorimetric assay; type: functional, cell-based
[14] = target: Eukaryotic translation initiation factor 4E-binding protein 1 (Rattus norvegicus) (UniProt Q62622); test: Activation of 4E-BP1 in rat L6 myoblasts assessed as increase in 4E-BP1 protein level at 0.1 to 25 uM by western blot analysis; type: cell-based; settings: filed as activator, dose 0.1-25 µM, DDE = dose-dependent effect
Liver = test: Effect on 4E-BP1 in db/db mouse liver assessed as increase in 4E-BP1 protein level at 100 mg/kg, po bid administered for 21 days by immunohistochemical staining analysis; type: functional, organism-based; settings: time 21.0 day
L6 [15] = test: Time dependent activation of Akt in rat L6 myoblasts assessed as increase in AKT phosphorylation at Ser473 at 10 to 180 min by western blot analysis; type: cell-based; settings: filed as activator, time 10-180 min, TDE = time-dependent effect
[16] = Toxicity in db/db mouse liver assessed as reduction of fat accumulation in liver at 100 mg/kg, po bid administered for 21 days by H and E staining based microscopic analysis; type: organism-based; settings: in vivo, 504 h, time 21 day
[17] = Toxicity in db/db mouse assessed as increase in body weight at 75 mg/kg, po administered for 21 days; type: organism-based; settings: in vivo, 504 h, time 21 day
[18] = target: T1, AMP-activated protein kinase, AMPK (Rattus norvegicus) (UniProt P54645+Q09137+P80386+P80385+Q9QZH4+Q6V7V4+D4A7E4); test: Activation of AMPK in rat L6 myoblasts assessed as increase in AMPK protein level at 25 uM measured after 30 mins by western blot analysis; type: cell-based; settings: filed as activator
[19] = target: Eukaryotic translation initiation factor 4E-binding protein 1 (Rattus norvegicus) (UniProt Q62622); test: Activation of 4E-BP1 in rat L6 myoblasts assessed as increase in 4E-BP1 protein level at 25 uM measured after 30 mins by western blot analysis; type: cell-based; settings: filed as activator
Pancreas = test: Effect on 4E-BP1 in db/db mouse pancreas assessed as increase in 4E-BP1 protein level at 100 mg/kg, po bid administered for 21 days by immunohistochemical staining analysis; type: functional, organism-based; settings: time 21.0 day
[20] = Toxicity in db/db mouse assessed as decrease in body weight at 100 mg/kg, po administered for 21 days; type: organism-based; settings: in vivo, 504 h, time 21 day
Mus musculus [21] = test: Improvement in glucose tolerance in db/db mouse assessed as reduction in blood glucose level at 100 mg/kg, po measured after 20 days; type: functional, organism-based; settings: time 20.0 day
Muscle tissue = test: Effect on 4E-BP1 in db/db mouse muscle tissue assessed as increase in 4E-BP1 protein level at 100 mg/kg, po bid administered for 21 days by immunohistochemical staining analysis; type: functional, organism-based; settings: time 21.0 day
[22] = Toxicity in db/db mouse assessed as reduction in triglyceride at 75 mg/kg, po administered for 21 days; type: organism-based; settings: in vivo, 504 h, time 21 day
L6 [23] = test: Activation of Akt in rat L6 myoblasts assessed as increase in AKT phosphorylation at Ser473 at 0.1 to 25 uM by western blot analysis; type: cell-based; settings: filed as activator, dose 0.1-25 µM, DDE = dose-dependent effect
Mus musculus [24] = test: Antidiabetic activity in db/db mouse assessed as reduction in random blood glucose level at 100 mg/kg, po bid measured up to 21 days; type: functional; parameters: scale not given: the % may be the effect or the level left; settings: time <= 21 day
[25] = target: T1, AMP-activated protein kinase, AMPK (Rattus norvegicus); test: Activation of AMPK in rat L6 myoblasts assessed as increase in AMPK phosphorylation at Thr172 at 0.1 to 25 uM by western blot analysis; type: cell-based; settings: filed as activator, dose 0.1-25 µM, DDE = dose-dependent effect
[26] = Toxicity in db/db mouse assessed as reduction in total cholesterol at 75 to 100 mg/kg, po administered for 21 days; type: organism-based; settings: in vivo, 504 h, dose 75-100 mg/kg, time 21 day
Mus musculus [27] = test: Antidiabetic activity in db/db mouse assessed as reduction in random blood glucose level at 75 mg/kg, po bid measured up to 21 days; type: functional; parameters: scale not given: the % may be the effect or the level left; settings: time <= 21 day
[28] = target: T1, AMP-activated protein kinase, AMPK (Rattus norvegicus); test: Activation of AMPK in rat L6 myoblasts assessed as increase in AMPK phosphorylation at Thr172 at 25 uM measured after 30 mins by western blot analysis; type: cell-based; settings: filed as activator
[29] = target: Eukaryotic translation initiation factor 4E-binding protein 1 (Rattus norvegicus) (UniProt Q62622); test: Time dependent activation of 4E-BP1 in rat L6 myoblasts assessed as increase in 4E-BP1 protein level at 10 to 180 min by western blot analysis; type: cell-based; settings: filed as activator, time 10-180 min, TDE = time-dependent effect
Mus musculus [30] = test: Antidiabetic activity in db/db mouse assessed as reduction in fasting blood glucose level at 100 mg/kg, po bid measured up to 21 days; type: functional; parameters: scale not given: the % may be the effect or the level left; settings: time <= 21 day
[31] = Toxicity in db/db mouse assessed as effect on muscle tissue morphology at 100 mg/kg, po bid administered for 21 days by H and E staining based microscopic analysis; type: organism-based; settings: in vivo, 504 h, time 21 day
L6 [32] = test: Activation of Akt in rat L6 myoblasts assessed as increase in AKT phosphorylation at Ser473 at 25 uM measured after 30 mins by western blot analysis; type: cell-based; settings: filed as activator
Mus musculus [33] = test: Antidiabetic activity in db/db mouse assessed as reduction in fasting blood glucose level at 75 mg/kg, po bid measured up to 21 days; type: functional; parameters: scale not given: the % may be the effect or the level left; settings: time <= 21 day
Mus musculus [34] = test: Antidiabetic activity in db/db mouse assessed as reduction in blood glucose level at 100 mg/kg, po bid measured after 6 hrs; type: functional; parameters: scale not given: the % may be the effect or the level left
[35] = target: T1, AMP-activated protein kinase, AMPK (Rattus norvegicus); test: Time dependent activation of AMPK in rat L6 myoblasts assessed as increase in AMPK phosphorylation at Thr172 at 10 to 180 min by western blot analysis; type: cell-based; settings: filed as activator, time 10-180 min, TDE = time-dependent effect
[36] = Toxicity in db/db mouse assessed as effect on pancreas morphology at 100 mg/kg, po bid administered for 21 days by H and E staining based microscopic analysis; type: organism-based; settings: in vivo, 504 h, time 21 day
Mus musculus [37] = test: Improvement in glucose tolerance in db/db mouse assessed as reduction in blood glucose level at 300 mg/kg, po measured after 20 days; type: functional, organism-based; settings: time 20.0 day
L6 [38] = test: Activation of Akt in rat L6 myoblasts assessed as increase in Akt protein level at 25 uM measured after 30 mins by western blot analysis; type: cell-based; settings: filed as activator
[39] = Toxicity in db/db mouse assessed as reduction in triglyceride at 100 mg/kg, po administered for 21 days; type: organism-based; settings: in vivo, 504 h, time 21 day

Eukaryotic translation initiation factor 4E-binding protein 1 (Rattus norvegicus), sequence (Q62622 whole entry): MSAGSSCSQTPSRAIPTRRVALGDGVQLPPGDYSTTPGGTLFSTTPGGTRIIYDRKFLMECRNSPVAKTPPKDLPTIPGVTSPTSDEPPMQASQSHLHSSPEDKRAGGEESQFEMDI

Structure (SMILES): COc1ccc2c(c1)[C@H]1[C@H](CCN1C(=O)Cc1ccc(C)cc1)[C@H]1CCCN21 (racemic)
Activity (L6 [1]): 101.2%

half-life [2]: 11.9 h | bioavailability [3]: 9.5% | AUC(0-t) at 24 h [4]: 1480 ng·h/mL | Cmax [5]: 981 ng/mL | Tmax [6]: 0.4 h | AUC(0-t) at 10 h [8]: 561 ng·h/mL | half-life [9]: 7.6 h | Cmax [10]: 307 ng/mL
Structure (SMILES): COc1ccc2c(c1)[C@H]1[C@H](CCN1Cc1ccc3c(ccn3C)c1)[C@H]1CCCN21 (racemic)
Activity (L6 [1]): 68.7% | Activity (L6 [7]): 23.4 pmol/µL

Structure (SMILES): Cc1ccc(N2CC[C@@H]3[C@@H]4CCCN4c4ccc(C)cc4[C@@H]32)cc1 (racemic)
Activity (L6 [1]): 63.5%

Structure (SMILES): Fc1ccc(N2CC[C@@H]3[C@@H]4CCCN4c4ccc(F)cc4[C@@H]32)cc1 (racemic)
Activity (L6 [1]): 58.3%

half-life [11]: 3.12 h | half-life [12]: 0.578 h
Structure (SMILES): NC(=O)Cc1ccc(N2CC[C@@H]3[C@H]4CCCN4c4ccc(CC(N)=O)cc4[C@@H]32)cc1 (racemic)

Structure (SMILES): COc1ccc2c(c1)[C@H]1[C@H](CCN1C(=O)c1ccc3ccccc3c1)[C@H]1CCCN21 (racemic)
Activity (L6 [1]): 172.4% | Activity (L6 [7]): 52.9 pmol/µL | EC50 (L6 [13]): 34.5 µM

Activity [14]: Dde | half-life [2]: 12.4 h | bioavailability [3]: 19.9% | Activity [18]: Active | AUC(0-t) at 24 h [4]: 588 ng·h/mL | fold change (FC) [19]: 2 | Cmax [5]: 542 ng/mL | Activity [25]: Dde | Tmax [6]: 0.5 h | Activity [28]: Active | AUC(0-t) at 10 h [8]: 469 ng·h/mL | Activity [29]: Tde | half-life [9]: 3.9 h | Activity [35]: Tde | Cmax [10]: 141 ng/mL
Structure (SMILES): COc1ccc2c(c1)[C@H]1[C@H](CCN1CCc1ccc(Cl)cc1)[C@H]1CCCN21 (racemic)
Activity (Liver): Active | Activity (L6 [15]): Tde | Activity [16]: Toxic | Activity [17]: Non-Toxic | Activity (Pancreas): Active | Activity [20]: Toxic | Activity (Mus musculus [21]): Active | Activity (Muscle tissue): Active | Activity [22]: Toxic | Activity (L6 [1]): 215.6% | Activity (L6 [23]): Dde | Activity (Mus musculus [24]): 79% | Activity [26]: Toxic | Activity (L6 [7]): 81.9 pmol/µL | Activity (Mus musculus [27]): 77.2% | Activity (Mus musculus [30]): 62.1% | Activity [31]: Non-Toxic | Activity (L6 [32]): Active | Activity (Mus musculus [33]): 65.5% | Activity (Mus musculus [34]): 38.1% | Activity [36]: Non-Toxic | EC50 (L6 [13]): 2.7 µM | Activity (Mus musculus [37]): Active | Activity (L6 [38]): Active | Activity [39]: Toxic

Structure (SMILES): COc1ccc(N2CC[C@@H]3[C@@H]4CCCN4c4cc(O)c(OC)cc4[C@@H]32)cc1O (racemic)
Activity (L6 [1]): 70.6%

Structure (SMILES): COc1ccc2c(c1)[C@H]1[C@H](CCN1Cc1ccccc1)[C@H]1CCCN21 (racemic)
Activity (L6 [1]): 66.4% | Activity (L6 [7]): 51.6 pmol/µL

Structure (SMILES): COc1ccc2c(c1)[C@H]1[C@H](CCN1C(=O)c1ccc(C#N)cc1)[C@H]1CCCN21 (racemic)
Activity (L6 [1]): 71.4% | Activity (L6 [7]): 5.5 pmol/µL

Structure (SMILES): COc1ccc2c(c1)[C@H]1[C@H](CCN1Cc1ccc(Cl)cc1)[C@H]1CCCN21 (racemic)
Activity (L6 [1]): 22.3%

Structure (SMILES): Cc1ccc(N2CC[C@@H]3[C@H]4CCCN4c4ccc(C)cc4[C@@H]32)cc1 (racemic)
Activity (L6 [1]): 130.9% | Activity (L6 [7]): 13.1 pmol/µL

Structure (SMILES): COc1ccc(CN2CC[C@@H]3[C@H]4CCCN4c4ccc(OC)cc4[C@@H]32)cc1 (racemic)
Activity (L6 [1]): 15%
